Experimental data as given in patent publication US20170029841A1, “METHODS AND COMPOSITIONS FOR SELECTIVE REGULATION OF PROTEIN EXPRESSION” (priority 2015, published 2017).

Test system: maize tissue pools (tassel, ear, leaf, root, stem)
Assay: siRNA profiling microarray assay of mts-siRNA sequences across maize tissues
Conditions: for 01DKD2 V8-V9 Tassel relative signal value: germplasm 01DKD2, V8-V9 tassel; for 01DKD2 V10-V12 Tassel relative signal value: germplasm 01DKD2, V10-V12 tassel; for 01DKD2 Other Tissue relative signal value: germplasm 01DKD2, combined signals from other tissue; for LH244 V8-V9 Tassel relative signal value: germplasm LH244, V8-V9 tassel; for LH244 V10-V12 Tassel relative signal value: germplasm LH244, V10-V12 tassel; for LH244 Other Tissue relative signal value: germplasm LH244, combined signals from other tissue
Description: A siRNA profiling microarray assay was performed using μParaflo® Microfluidics chips provided by LC Sciences LLC (Houston, Tex., USA) with 1,200 sequences selected from the thousands of mts-siRNA sequences identified from the differential bioinformatic analysis. The microarray chips contained triplicate probes of the complementary sequence for each of the 1,200 mts-siRNA sequences. Total RNA was purified from 26 maize tissue pools (duplicate or triplicate tissue pools) from either LH244 (ATCC deposit number PTA-1173) or 01DKD2 (I294213) (ATCC deposit number PTA-7859) inbred plants. Each of the 26 RNA samples were hybridized with the microarray chips that contain probes for the 1,200 mts-siRNA. Hybridization images were collected using a GenePix® 4000B laser scanner (Molecular Devices, Sunnyvale, Calif.) and digitized using Array-Pro® Analyzer image analysis software (Media Cybernetics, Rockville, Md.). Relative signal values were derived by background subtraction and normalization. Differentially expressed signals were determined by t-test with p<0.05. From the microarray analysis, about 500 mts-siRNA from the 1,200 were identified as being highly tassel-specific.
Selected mts-siRNA sequences aligning to one of the six cDNA sequences were used for further microarray analysis to determine differential expression across maize tissues. Microarray analysis for mts-siRNA sequences of normalized signal values for V8-V9 tassel, V10-V12 tassel, or combined signals from the other tissue for maize germplasm LH244 and 01DKD2 is presented in Tables 3-10. […] Signal value results are measured as relative signal values and standard error (p<0.05) is represented by (STDR). […] The mts-siRNA sequence corresponds to the sense or antisense strand of the corresponding mts-siRNA target sequence in the cDNA sequence. The mts-siRNA sequence may have a single nucleotide, a two nucleotide, or a three nucleotide mismatch with the aligned portion of the cDNA sequence, and the mts-siRNA sequence may align to the sense strand or antisense strand of the cDNA sequence. The mts-siRNA sequences provided here are found across different maize germplasms.

Row | Substance | 01DKD2 V8-V9 Tassel relative signal value | 01DKD2 V10-V12 Tassel relative signal value | 01DKD2 Other Tissue relative signal value | LH244 V8-V9 Tassel relative signal value | LH244 V10-V12 Tassel relative signal value | LH244 Other Tissue relative signal value
1 | SEQ ID NO: 70: mts-siRNA sequence aligning to cDNA SEQ ID NO: 22 (CATGCACTGGTGAGTCACTGTTG; expressed or natural sequence) | 3 | 873 | 4 | 56.5 | 694 | 1.8
2 | SEQ ID NO: 82: mts-siRNA sequence aligning to cDNA SEQ ID NO: 22 (AGGCCTCCCTTCCCTATGGTAGCC; expressed or natural sequence) | 71.5 | 211 | 54.8 | 95.5 | 137 | 217.4
3 | SEQ ID NO: 53: mts-siRNA sequence aligning to cDNA SEQ ID NO: 20 (CCATGTAATACACAGTGTCGTC; expressed or natural sequence) | 16 | 84 | 1.5 | 76.5 | 145 | 2.2
4 | SEQ ID NO: 80: mts-siRNA sequence aligning to cDNA SEQ ID NO: 22 (CATCAACGACTACAACGGTGAA; expressed or natural sequence) | 2.5 | 230 | 0.5 | 138 | 383.3 | 0.7
5 | SEQ ID NO: 36: mts-siRNA sequence aligning to cDNA SEQ ID NO: 18 (CGTGCATATCGCCATCCTCTGCT; expressed or natural sequence) | 15.5 | 1225.5 | 4.3 | 906.5 | 606.7 | 2.2
6 | SEQ ID NO: 54: mts-siRNA sequence aligning to cDNA SEQ ID NO: 20 (CATCGTCGTGCAGCTGGT; expressed or natural sequence) | 56 | 231 | 19.5 | 100.5 | 172 | 14.2
7 | SEQ ID NO: 77: mts-siRNA sequence aligning to cDNA SEQ ID NO: 22 (AAGGCAAGAAGGTGCTTGTTGTC; expressed or natural sequence) | 0.5 | 225 | 2.5 | 180.5 | 302.7 | 4.1
8 | SEQ ID NO: 34: mts-siRNA sequence aligning to cDNA SEQ ID NO: 18 (ACGTGCATATCGCCATCCTCTGCT; expressed or natural sequence) | 8.5 | 982 | 3.5 | 848.5 | 572.7 | 3
9 | SEQ ID NO: 87: mts-siRNA sequence aligning to cDNA SEQ ID NO: 22 (ACCAAGGATGTCGTCACCACCAAT; expressed or natural sequence) | 25 | 91.5 | 2.5 | 56 | 104 | 4.7
10 | SEQ ID NO: 44: mts-siRNA sequence aligning to cDNA SEQ ID NO: 19 (TTGGCGTGAAAGCTCGAGTGCTCC; expressed or natural sequence) | 15.5 | 1443.5 | 6.3 | 756 | 1340 | 1.8
11 | SEQ ID NO: 79: mts-siRNA sequence aligning to cDNA SEQ ID NO: 22 (CAAGGCAAGAAGGTGCTTGTTGTCC; expressed or natural sequence) | 5 | 290.5 | 2 | 197.5 | 269.3 | 1.9
12 | SEQ ID NO: 85: mts-siRNA sequence aligning to cDNA SEQ ID NO: 22 (CAAGGCAAGAAGGTGCTTGTTGT; expressed or natural sequence) | 2.5 | 246 | 2.5 | 184 | 310 | 2.8
13 | SEQ ID NO: 78: mts-siRNA sequence aligning to cDNA SEQ ID NO: 22 (GCATGCACTGGTGAGTCACTGTTG; expressed or natural sequence) | 3 | 715.5 | 4.5 | 47.5 | 642.7 | 1
14 | SEQ ID NO: 23: mts-siRNA sequence aligning to cDNA SEQ ID NO: 17 (CATCACCATGCACGGTCGTCGT; expressed or natural sequence) | 27 | 318 | 4.3 | 183.5 | 514 | 2.6
15 | SEQ ID NO: 49: mts-siRNA sequence aligning to cDNA SEQ ID NO: 19 (TACTACTACTCCCTTCTCGG; expressed or natural sequence) | 57.5 | 867 | 55.3 | 340 | 1241.7 | 16.3
16 | SEQ ID NO: 60: mts-siRNA sequence aligning to cDNA SEQ ID NO: 20 (CGTCGTGCAGCTGGTCACCGGT; expressed or natural sequence) | 75.5 | 303 | 9.3 | 141.5 | 265.7 | 5.8
17 | SEQ ID NO: 32: mts-siRNA sequence aligning to cDNA SEQ ID NO: 18 (TAGCCACACGGTCACGTTTGGAC; expressed or natural sequence) | 7.5 | 516 | 2.8 | 376.5 | 118 | 2
18 | SEQ ID NO: 24: mts-siRNA sequence aligning to cDNA SEQ ID NO: 17 (ATCACCATGCACGGTCGT; expressed or natural sequence) | 16 | 174 | 3 | 104.5 | 322 | 7.7
19 | SEQ ID NO: 47: mts-siRNA sequence aligning to cDNA SEQ ID NO: 19 (TGGTGTGGTCGTTAGCTACTTTA; expressed or natural sequence) | 12.5 | 1051.5 | 4 | 157.5 | 900.7 | 15.5
20 | SEQ ID NO: 73: mts-siRNA sequence aligning to cDNA SEQ ID NO: 22 (AAGCTATCGATTCCCTAAGTGCCA; expressed or natural sequence) | 37.5 | 1695.5 | 2 | 1058.5 | 2395.7 | 4.5
